Data from patent US10023593B2, “ALK kinase inhibitor, and preparation method and uses thereof” (BEIJING PEARL BIOTECHNOLOGY LIMITED LIABILITY COMPANY, priority 2014, dated 2018).

Key:
Wild Type ALK kinase = target: T1, Wild Type ALK kinase (Homo sapiens, UniProt Q9UM73); test: HTRF KinEASE-TK assay, inhibitory activity on wild type ALK kinase; type: biochemical; settings: wild type ALK 1 ng/μl, substrate 1 μM, 30° C. 35 minutes, read-out: Inhibition on ALK kinases (wildtype), IC50
T1 construct: purchased Sino-US Crown Bioscience, Inc. batch number ALK 20110607
Summary of the method: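 ALK kinase at 1 ng/μl and substrate at 1 μM were reacted with compound (1% DMSO) in buffer with 5 mM MgCl2 and 1 mM DTT for 35 min at 30 °C. HTRF detection used the 665/615 ratio, normalised to no-compound wells and to 10.4 μM LDK-378 wells. IC50 came from a concentration-response fit.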

Karpas-299 cell line = test: CellTiter-Glo cell proliferation inhibition on Karpas-299 cell line; type: cell-based; settings: Homo sapiens, 96 h, Karpas-299 cells, 5000 cells/well, 4 days drug treatment
Summary of the method: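 CellTiter-Glo luminescence measured after 4-day compound exposure (0.5% DMSO final) of Karpas-299 cells seeded at 5000/well in RPMI-1640 with 10% FBS, 37 °C, 5% CO2. IC50 derived from percent inhibition relative to vehicle wells.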

T1 sequence (Q9UM73 19-1620): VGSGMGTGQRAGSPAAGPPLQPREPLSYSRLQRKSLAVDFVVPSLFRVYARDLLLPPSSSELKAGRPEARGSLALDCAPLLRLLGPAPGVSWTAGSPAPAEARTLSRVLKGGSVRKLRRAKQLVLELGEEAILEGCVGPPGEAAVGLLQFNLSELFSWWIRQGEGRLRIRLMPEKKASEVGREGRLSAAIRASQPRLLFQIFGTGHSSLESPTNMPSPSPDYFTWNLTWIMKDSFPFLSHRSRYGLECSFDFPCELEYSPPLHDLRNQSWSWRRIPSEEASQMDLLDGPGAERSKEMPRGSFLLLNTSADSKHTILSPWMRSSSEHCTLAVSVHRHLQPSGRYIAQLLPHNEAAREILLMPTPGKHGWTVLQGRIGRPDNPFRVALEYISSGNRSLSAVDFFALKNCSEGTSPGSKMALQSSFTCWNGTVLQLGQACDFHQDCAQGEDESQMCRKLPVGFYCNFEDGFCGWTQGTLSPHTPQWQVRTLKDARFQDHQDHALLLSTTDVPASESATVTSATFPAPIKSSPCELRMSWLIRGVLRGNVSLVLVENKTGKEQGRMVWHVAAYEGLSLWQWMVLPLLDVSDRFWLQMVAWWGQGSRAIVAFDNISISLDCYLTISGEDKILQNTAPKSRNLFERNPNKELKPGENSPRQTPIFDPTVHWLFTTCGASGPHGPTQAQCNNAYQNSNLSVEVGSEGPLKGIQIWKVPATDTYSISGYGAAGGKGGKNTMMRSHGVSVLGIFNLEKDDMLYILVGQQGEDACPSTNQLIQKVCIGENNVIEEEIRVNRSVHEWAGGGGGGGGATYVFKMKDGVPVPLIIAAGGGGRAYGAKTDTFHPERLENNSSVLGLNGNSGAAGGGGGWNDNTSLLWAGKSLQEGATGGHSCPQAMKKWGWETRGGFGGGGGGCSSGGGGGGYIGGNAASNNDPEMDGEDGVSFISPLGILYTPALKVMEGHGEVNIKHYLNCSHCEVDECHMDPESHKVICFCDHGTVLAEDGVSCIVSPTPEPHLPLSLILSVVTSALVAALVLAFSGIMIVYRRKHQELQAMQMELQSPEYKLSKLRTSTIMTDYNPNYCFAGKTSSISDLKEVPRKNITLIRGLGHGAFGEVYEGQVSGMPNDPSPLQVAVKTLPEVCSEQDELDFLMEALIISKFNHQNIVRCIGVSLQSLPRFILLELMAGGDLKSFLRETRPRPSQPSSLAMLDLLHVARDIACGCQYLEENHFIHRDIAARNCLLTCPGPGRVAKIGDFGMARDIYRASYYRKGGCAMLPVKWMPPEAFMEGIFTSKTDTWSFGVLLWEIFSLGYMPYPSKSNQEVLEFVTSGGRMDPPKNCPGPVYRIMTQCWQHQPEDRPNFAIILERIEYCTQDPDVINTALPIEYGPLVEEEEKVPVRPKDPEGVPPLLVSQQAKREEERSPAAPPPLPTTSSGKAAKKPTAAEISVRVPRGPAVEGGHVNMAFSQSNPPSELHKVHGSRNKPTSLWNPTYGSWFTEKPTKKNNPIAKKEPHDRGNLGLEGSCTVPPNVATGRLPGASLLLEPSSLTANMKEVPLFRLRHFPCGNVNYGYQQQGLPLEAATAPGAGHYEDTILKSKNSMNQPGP

| Compound | IC50 (Wild Type ALK kinase) [nM] | IC50 (Karpas-299 cell line) [nM] |
| --- | --- | --- |
| Cc1cc(Nc2ncc(Cl)c(Nc3cn(C)nc3S(=O)(=O)C(C)C)n2)c(OC2CC2)cc1OC1CCN(C)CC1 [Final product 111] | 3 | 16 |
| CCN1CCC(c2cc(OC(C)C)c(Nc3ncc(Cl)c(Nc4cn(C)nc4S(=O)(=O)C(C)C)n3)cc2C)CC1 [Final product 118] | 5 | 9 |
| Cc1cc(Nc2ncc(Cl)c(Nc3cn(C)nc3S(=O)(=O)C(C)C)n2)c(OC(C)C)cc1C1CCN(C(C)C)CC1 [Final product 126] | 7 | 12 |
| Cc1cc(Nc2ncc(Cl)c(Nc3cn(C)nc3S(=O)(=O)CC(C)C)n2)c(OC2CC2)cc1C1CCN(C(C)C)CC1 [Final product 127] | 5 | 30 |
| Cc1cc(Nc2ncc(Cl)c(Nc3cn(C)nc3S(=O)(=O)C(C)C)n2)c(OC2CC2)cc1C1CCN(CCO)CC1 [Final product 133, 2-(4-(4-(5-chloro-4-(3-(isopropylsulfonyl)-1-methyl-1H-pyrazol-4-amino)pyrimidin-2-amino)-5-cyclopropoxy-2-methylphenyl)piperidin-1-yl) ethanol] | 2 | 4 |
| CCOc1cc(C2CCN(CCO)CC2)c(C)cc1Nc1ncc(Cl)c(Nc2cn(C)nc2S(=O)(=O)C(C)C)n1 [Final product 135] | 3 | 3 |
| Cc1cc(Nc2ncc(Cl)c(Nc3cn(C)nc3S(=O)(=O)CC(C)C)n2)c(OC2CC2)cc1C1CCN(CCO)CC1 [Final product 137] | 4 | 12 |
| Cc1cc(Nc2ncc(Cl)c(Nc3cn(C)nc3S(=O)(=O)C(C)C)n2)c(OC2CCC2)cc1C1CCN(CCO)CC1 [Final product 138] | 4 | 6 |
| Cc1cc(Nc2ncc(Cl)c(Nc3cn(C)nc3S(=O)(=O)C(C)C)n2)c(OC2CC2)cc1C1CCN(CCN(C)C)CC1 [Final product 146, 5-chloro-N^2-(2-cyclopropoxy-4-(1-(2-(dimethylamino)ethyl)piperidin-4-yl)-5-methylphenyl)-N^4-(3-(isopropylsulfonyl)-1-methyl-1H-pyrazol-4-yl)-pyrimidin-2,4-diamine] | 2 | 15 |
| Cc1cc(Nc2ncc(Cl)c(Nc3cn(C)nc3S(=O)(=O)C(C)C)n2)c(OC(C)C)cc1C1CCN(C(C)(C)CO)CC1 [Final product 152] | 4 | 7 |
| Cc1cc(Nc2ncc(Cl)c(Nc3cn(C)nc3S(=O)(=O)C(C)C)n2)c(OC2CC2)cc1C1CCN(C2COC2)CC1 [Final product 156] | 10 | 19 |
| Cc1cc(Nc2ncc(Cl)c(Nc3cn(C)nc3S(=O)(=O)C(C)C)n2)c(OC2CC2)cc1C1CCN(C2CC2)CC1 [Final product 157] | 7 | 13 |
| Cc1cc(Nc2ncc(Cl)c(Nc3cn(C)nc3S(=O)(=O)C(C)C)n2)c(OC2CC2)cc1C1CCN(C=O)CC1 [Final product 159, 4-(4-(5-chloro-4-(3-(isopropylsulfonyl)-1-methyl-1H-pyrazol-4-amino)pyrimidin-2-amino)-5-cyclopropoxy-2-methylphenyl)piperidin-1-formaldehyde] | 9 | 11 |
| CC(=O)N1CCC(c2cc(OC3CC3)c(Nc3ncc(Cl)c(Nc4cn(C)nc4S(=O)(=O)C(C)C)n3)cc2C)CC1 [Final product 160, 1-acetyl-4-(4-(5-chloro-4-(3-(isopropylsulfonyl)-1-methyl-1H-pyrazol-4-amino)pyrimidin-2-amine)-5-cyclopropoxy-2-methylphenyl)piperidine] | 7 | 14 |
| Cc1cc(Nc2ncc(Cl)c(Nc3cn(C)nc3S(=O)(=O)C(C)C)n2)c(OC2CC2)cc1C1CCN(C(=O)C(F)(F)F)CC1 [Final product 161, 1-trifluoroacetyl-4-(4-(5-chloro-4-(3-(isopropylsulfonyl)-1-methyl-1H-pyrazol-4-amino)pyrimidin-2-amine)-5-cyclopropoxy-2-methylphenyl)piperidine] | 32 | 27 |
